According to US20070031902A1, “Predictive Methods For Cancer Chemotherapy” (priority 2005, published 2007):
“Also recorded” adds a separate entry of the source.

Tests used:
Type in all cases: cell-based, human
[1] = test system: p4EBP1; experiment: IHC and image analysis of p4EBP1 under DFO-induced hypoxia; details: Jurkat cells, 50 μM DFO overnight vs vehicle
Description: (§1) These markers were evaluated by immunohistochemistry (“IHC”) and image analysis in the presence of Desferrioxarnine (“DFO”)-induced hypoxia, as well as in its absence, or normoxia. DFO is an iron-chelating agent known to induce hypoxia, and was used in these experiments as a model for hypoxia. All IHC analyses were carried out on either the BenchMark XT® or Discovery XT® (Ventana Medical Systems, Inc., Tucson Ariz. (“VMSI”)) staining platforms. Primary antibodies were obtained from commercial sources (See Table 1). Controls were vehicle treated. […] Primary antibodies were detected using the DABMapTM, OmniMapTM (Discovery XT®), or iViewTM DAB (BenchMark XT®) detection kit according to the manufacturer's instructions. […] Detection Kit detected specific mouse IgG, IgM and rabbit IgG antibodies bound to an antigen in paraffin-embedded or frozen tissue section. […] Staining intensities, percentage of reactive cells, and cellular localization were recorded. […] Slides were reviewed and scored by the pathologist prior to quantitation by optical imaging. For optical imaging, a digital application (VMSI) with image quantification based on the intensity (expressed as average optical density, or avg. OD) of the stain converted to a numerical score was utilized. […]

[2] = test system: pMEK; experiment: IHC and image analysis of pMEK under DFO-induced hypoxia; details: Jurkat cells, 50 μM DFO overnight vs vehicle
Description: as §1

[3] = test system: pS6; experiment: IHC and image analysis of pS6 under DFO-induced hypoxia; details: Jurkat cells, 50 μM DFO overnight vs vehicle
Description: These markers were evaluated by immunohistochemistry (“IHC”) and image analysis in the presence of Desferrioxarnine (“DFO”)-induced hypoxia, as well as in its absence, or normoxia. DFO is an iron-chelating agent known to induce hypoxia, and was used in these experiments as a model for hypoxia. All IHC analyses were carried out on either the BenchMark XT® or Discovery XT® (Ventana Medical Systems, Inc., Tucson Ariz. (“VMSI”)) staining platforms. Primary antibodies were obtained from commercial sources (See Table 1). Controls were vehicle treated. […] Primary antibodies were detected using the DABMapTM, OmniMapTM (Discovery XT®), or iViewTM DAB (BenchMark XT®) detection kit according to the manufacturer's instructions. […] Detection Kit detected specific mouse IgG, IgM and rabbit IgG antibodies bound to an antigen in paraffin-embedded or frozen tissue section. […]

[4] = test system: HIF-1α; experiment: IHC and image analysis of HIF-1α in Jurkat cells under DFO-induced hypoxia; details: 50 μM DFO overnight vs vehicle
Description: as §1

[5] = test system: pmTOR; experiment: IHC and image analysis of pmTOR under DFO-induced hypoxia; details: Jurkat cells, 50 μM DFO overnight vs vehicle
Description: as §1

[6] = test system: pAKT; experiment: IHC and image analysis of pAKT under DFO-induced hypoxia; details: Jurkat cells, 50 μM DFO overnight vs vehicle
Description: as §1

[7] = test system: pTSC2; experiment: IHC and image analysis of pTSC2 under DFO-induced hypoxia; details: Jurkat cells, 50 μM DFO overnight vs vehicle
Description: as §1

[8] = test system: mTOR; experiment: IHC and image analysis of mTOR under DFO-induced hypoxia; details: 50 μM DFO overnight vs vehicle; consistently high
Description: as §1

[9] = test system: pERK (p44/p42); experiment: IHC and image analysis of pERK (p44/p42) under DFO-induced hypoxia; details: 50 μM DFO overnight vs vehicle; negative in Jurkat cells, positive in HT1080 cells
Description: as §1

[10] = test system: HIF-1α; experiment: IHC and image analysis of HIF-1α in HT1080 cells (DFO, PX-478 dose escalation); details: DFO vs vehicle
[11] = test system: HIF-1α; experiment: FACS of hypoxia-induced HIF-1α expression in Jurkat tumor cell line; details: after treatment with DFO
Description: FIG. 6 illustrates the fluorescence-activated cell sorting (FACS) results of hypoxia-induced HIF-1α expression in a Jurkat tumor cell line. IHC was conducted and assessed according to the procedures detailed in Example 1. Western Blotting and FACS analysis were conducted using standard conditions.

CC(=O)N(O)CCCCCNC(=O)CCC(=O)N(O)CCCCCNC(=O)CCC(=O)N(O)CCCCCN [DFO, desferrioxamine]
p4EBP1 expression (IHC) [1]: decrease in expression
pMEK expression (IHC) [2]: decrease in expression
pS6 expression (IHC) [3]: decrease in expression
HIF-1α expression (IHC) [4]: increase in expression; also recorded: increased expression
pmTOR expression (IHC) [5]: increase in expression
pAKT level of expression or activation (IHC) [6]: no change
pTSC2 level of expression or activation (IHC) [7]: no change
level of mTOR (IHC) [8]: No change
level of pERK (IHC) [9]: No change
HIF-1α expression (IHC) [10]: increased expression
HIF-1α (FACS) [11]: increase in HIF-1α
